Laboratory results: patent US20260041680A1, “METHODS OF TREATING CANCER WITH LONG-ACTING TOPOISOMERASE I INHIBITOR” (priority 2022, published 2026)
Read-outs that look alike come from different tables or passages of the source.

Legend:
[1] = system: H446 human small cell lung cancer xenograft
[2] = system: H460 human lung cancer xenograft
[3] = system: Panc-1 human pancreatic cancer xenograft
[4] = system: MKN45 human gastric cancer xenograft
[5] = system: HT-29 human colon cancer xenograft; experiment: HT-29 human colon cancer xenograft, antitumor activity and tolerability; assay type: in vivo, nude rat
[6] = system: HCT116 human colon cancer xenograft
[7] = SN-38 formed from CPT-11; evident from high SN-38G/SN-38; cited from earlier work
[8] = system: NCI-N87 human gastric cancer xenograft
[9] = in vivo, po
[10] = pegamotecan; cited from earlier work
[11] = cisplatin IP 5 mg/kg once a week for 2 weeks
[12] = PLX038 200 mg/kg, irinotecan 60 mg/kg, IV once a week for 2 weeks
[13] = irinotecan 60 mg/kg IV once a week for 2 weeks
[14] = PLX038 200 mg/kg IV once a week for 2 weeks
[15] = PLX038 IV 200 mg/kg once a week for 2 weeks

In the case of `N.N.[Cl][Pt][Cl]` [cisplatin], the TGI [1, 11] is reported as 36.1% and the TGI [2, 11] is reported as 33%.
`Nc1ccn([C@@H]2O[C@H](CO)[C@@H](O)C2(F)F)c(=O)n1` [gemcitabine] showed a TGI ([3]; gemcitabine IP 50 mg/kg once a week for 2 weeks) of 32.5%.
With `CCc1c2c(nc3ccc(OC(=O)N4CCC(N5CCCCC5)CC4)cc13)-c1cc3c(c(=O)n1C2)COC(=O)[C@]3(O)CC` [irinotecan] the tolerability [4, 12] was “well-tolerated”, the TGI [4, 13] was 45.6% and the “tumor growth inhibition (TGI)” value ([5]; irinotecan 70/50 mg/kg IV once a week for 2 weeks) was 45%. The “loss in body weight” value ([5]; irinotecan at 70 mg/kg IV (second dose lowered to 50 mg/kg)) was 16%, the tolerability [6, 12] was “well tolerated” and the TGI [6, 13] was 65.4%. For the same compound, the “liver/GI exposure of SN-38” value [7] was “high”, the tolerability [8, 12] was “well-tolerated” and the TGI [8, 13] was 57.8%.
For `CNCc1ccc(-c2[nH]c3cc(F)cc4c3c2CCNC4=O)cc1` [rucaparib], the “rucaparib pre-dose (trough) concentrations at steady state” value [9] was “reasonably consistent with prior data”.
For “O-[7-(tetra-polyethylene glycol ether)-carboxamido-1-cyano-2-heptyl]-N-(10′-methoxy-7′-ethyl-camptothecin)-N-[4′-(diethylcarbamoyl)phenyl)] carbamate [PLX038]”, the TGI [4, 14] was 59.0%, the “tumor growth inhibition (TGI)” value ([5]; PLX038 50 mg/kg IV once a week for 2 weeks) was 13% and the “tumor growth inhibition (TGI)” value ([5]; PLX038 100 mg/kg IV once a week for 2 weeks) was 35%. The “tumor growth inhibition (TGI)” value [5, 14] was 61%, the TGI [1, 15] was 41.0% and the TGI [2, 15] was 30%. The TGI [3, 15] was 73.1%, the TGI [6, 14] was 46.6% and the TGI [8, 14] was 34.4%.
For pegamotecan, the “maximum tolerated dose (MTD)” value [10] is listed as 3.24 g/m^2.
